# According to patent publication US20170173039A1, “COMPOSITIONS AND METHODS TO TREAT ADDICTION” (YALE UNIVERSITY, priority 2014, published 2017):
# Like-named read-outs stand apart in the source and are kept apart here.
# Assays:
# [1] = Effect of naltrexone on alcohol stimulation (BAES); format: in vivo, human; conditions: calculated from Ray et al. (Arch Gen Psychiatry 2007)
# Procedure: No human studies have examined perampanel in psychiatric/substance-using populations. We calculated an effect size for naltrexone based on Ray et al. (Arch Gen Psychiatry. 2007; 64(9):1069-77), for the effect of naltrexone on stimulation (BAES) and will extrapolate this effect to perampanel. Based on this calculated effect size (d) of 0.45 (e.g. a moderate effect size), we should be able to show a significant difference between perampanel and placebo groups using a two-sided, […] t-test, with alpha=0.05 and power (1-Beta) of 0.80 with n=21 subjects in each experimental group (total N=42). We will recruit and enter N=50 subjects, in order to complete at least 42.
# [2] = tested on: AMPA receptor; conditions: in vitro, rat hippocampal slices; cited from earlier work
# [3] = in vivo; cited from earlier work
# [4] = in vivo; cited from earlier work; remark: listed apart in the source
# [5] = cited from earlier work
# [6] = biological target: CYP3A4 (Homo sapiens, UniProt P08684); conditions: cited from earlier work
# [7] = cited from earlier work; remark: listed apart in the source
# [8] = cited from earlier work; remark: listed apart in the source
# [9] = tested on: AMPA receptor; conditions: animal spinal neurons; cited from earlier work
# Chain of CYP3A4 (P08684 whole entry): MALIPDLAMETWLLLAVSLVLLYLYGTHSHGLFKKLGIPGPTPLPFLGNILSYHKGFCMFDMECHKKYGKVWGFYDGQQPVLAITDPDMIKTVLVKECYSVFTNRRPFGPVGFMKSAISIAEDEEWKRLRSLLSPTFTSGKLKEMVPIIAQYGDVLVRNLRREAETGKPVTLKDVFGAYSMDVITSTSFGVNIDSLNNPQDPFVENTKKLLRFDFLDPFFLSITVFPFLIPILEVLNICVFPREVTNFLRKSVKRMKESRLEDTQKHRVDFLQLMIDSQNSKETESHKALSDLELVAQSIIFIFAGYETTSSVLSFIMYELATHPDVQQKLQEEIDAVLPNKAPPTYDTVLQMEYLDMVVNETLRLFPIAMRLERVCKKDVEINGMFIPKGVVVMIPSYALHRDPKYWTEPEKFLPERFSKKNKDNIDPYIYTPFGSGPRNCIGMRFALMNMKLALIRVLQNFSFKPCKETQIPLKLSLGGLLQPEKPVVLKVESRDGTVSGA
Structure (SMILES),effect size (d) on stimulation (BAES) [1],selectivity of action on the AMPA receptor [2],blood-brain-barrier penetration [3],bioavailability [4],pharmacokinetic linearity [4],medication related adverse events/side effects ([5]; chronic dosing in epilepsy trials),"tolerability ([5]; human subjects, doses of 8 mg or 12 mg daily)",metabolising enzyme [6],"maximum tolerated single oral dose ([7]; healthy human subjects, single oral dose)","medication related adverse events/side effects ([7]; human, in vivo)",elimination half-life T1/2 ([8]; healthy volunteers),absorption in the gastrointestinal system ([8]; orally active),time to peak plasma concentration (Tmax) ([8]; post-ingestion),selectivity of action on the AMPA receptor [9]
O=C1CC[C@@]2(O)[C@H]3Cc4ccc(O)c5c4[C@@]2(CCN3CC2CC2)[C@H]1O5 [naltrexone],0.45,,,,,,,,,,,,,
N#Cc1ccccc1-c1cc(-c2ccccn2)cn(-c2ccccc2)c1=O [perampanel],,selective action,effectively penetrates the blood-brain-barrier,about 100%,linear pharmacokinetics,"dizziness, somnolence, irritability, headache, fall, and ataxia",well tolerated,primarily metabolized by CYP3A4,,,,,,
CC(=O)N1N=C(c2ccc(N)cc2)c2cc3c(cc2C[C@H]1C)OCO3 [talampanel],,,good blood-brain-barrier penetration,,,,,,100 mg,"dizziness, sedation, and ataxia",approximately 4 hours,easily absorbed,approximately 2 hours,selective action
